Test results from PubChem BioAssay AID256 (DTP/NCI, 2004).
Toxic doses and inconclusive results are not listed. How the source made its calls: active means survival T/C of 150% or more; inactive means T/C below 125% in these data.

Test system: CD2F1 mice, L1210 leukemia ip, survival T/C
Test: NCI In Vivo Anticancer Drug Screen. Data for tumor model L1210 Leukemia (intraperitoneal) in CD2F1 (CDF1) mice
Conditions: higher = longer survival
How it was run: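 Compound-dosed mice with transplantable tumor versus matched vehicle controls; endpoint ratio T/C reported.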

[1] = endpoint: mean survival time, dose: 12.5 mg/kg/injection, schedule: Q01DX009 (ip), vehicle: other
[2] = endpoint: mean survival time, dose: 25.0 mg/kg/injection, schedule: Q01DX009 (ip), vehicle: other
[3] = endpoint: mean survival time, dose: 50.0 mg/kg/injection, schedule: Q01DX009 (ip), vehicle: other
[4] = endpoint: mean survival time, dose: 100.0 mg/kg/injection, schedule: Q01DX009 (ip), vehicle: other
[5] = endpoint: mean survival time, dose: 50.0 mg/kg/injection, schedule: Q01DX009 (ip), vehicle: saline with Tween-80
[6] = endpoint: mean survival time, dose: 100.0 mg/kg/injection, schedule: Q01DX009 (ip), vehicle: saline with Tween-80
[7] = endpoint: mean survival time, dose: 6.25 mg/kg/injection, schedule: Q01DX005 (ip), vehicle: distilled water + Tween-80
[8] = endpoint: mean survival time, dose: 12.5 mg/kg/injection, schedule: Q01DX005 (ip), vehicle: distilled water + Tween-80
[9] = endpoint: mean survival time, dose: 25.0 mg/kg/injection, schedule: Q01DX005 (ip), vehicle: distilled water + Tween-80
[10] = endpoint: mean survival time, dose: 50.0 mg/kg/injection, schedule: Q01DX005 (ip), vehicle: distilled water + Tween-80
[11] = endpoint: mean survival time, dose: 100.0 mg/kg/injection, schedule: Q01DX005 (ip), vehicle: distilled water + Tween-80
[12] = endpoint: mean survival time, dose: 100.0 mg/kg/injection, schedule: Q04DX003 (ip), vehicle: saline with Tween-80
[13] = endpoint: mean survival time, dose: 200.0 mg/kg/injection, schedule: Q04DX003 (ip), vehicle: saline with Tween-80
[14] = endpoint: mean survival time, dose: 400.0 mg/kg/injection, schedule: Q04DX003 (ip), vehicle: saline with Tween-80
[15] = endpoint: mean survival time, dose: 100.0 mg/kg/injection, schedule: Q04DX003 (ip), vehicle: saline
[16] = endpoint: mean survival time, dose: 100.0 mg/kg/injection, schedule: Q01DX001 (ip), vehicle: saline
[17] = endpoint: mean survival time, dose: 100.0 mg/kg/injection, schedule: Q04DX003 (ip), vehicle: Klucel (hydroxypropylcellulose) (HPC)
[18] = endpoint: mean survival time, dose: 200.0 mg/kg/injection, schedule: Q01DX009 (ip), vehicle: saline with Tween-80
[19] = endpoint: mean survival time, dose: 400.0 mg/kg/injection, schedule: Q01DX009 (ip), vehicle: saline with Tween-80
[20] = endpoint: mean survival time, dose: 100.0 mg/kg/injection, schedule: Q01DX009 (ip), vehicle: Klucel (hydroxypropylcellulose) (HPC)
[21] = endpoint: mean survival time, dose: 200.0 mg/kg/injection, schedule: Q01DX009 (ip), vehicle: Klucel (hydroxypropylcellulose) (HPC)

Measured: T/C

COc1ccc(C=NC2C(OC(C)=O)OC(COC(C)=O)C(OC(C)=O)C2OC(C)=O)cc1 (stereo not drawn)
inactive: endpoint: mean survival time, dose: 6.25 mg/kg/injection, schedule: Q01DX009 (ip), vehicle: other 96 % of control | [1] 96 % of control | [2] 93 % of control | [3] 94 % of control | [4] 96 % of control

O=C1C2CC=CCC2C(=O)C2CC=CCC12 (stereo not drawn)
inactive: endpoint: mean survival time, dose: 100.0 mg/kg/injection, schedule: Q01DX001 (ip), vehicle: saline with Tween-80 92 % of control | endpoint: mean survival time, dose: 200.0 mg/kg/injection, schedule: Q01DX001 (ip), vehicle: saline with Tween-80 92 % of control | endpoint: mean survival time, dose: 400.0 mg/kg/injection, schedule: Q01DX001 (ip), vehicle: saline with Tween-80 101 % of control

O=C(SCc1ccccc1)c1cccnc1
inactive: endpoint: mean survival time, dose: 6.25 mg/kg/injection, schedule: Q01DX009 (ip), vehicle: saline 98 % of control | endpoint: mean survival time, dose: 12.5 mg/kg/injection, schedule: Q01DX009 (ip), vehicle: saline 98 % of control | endpoint: mean survival time, dose: 25.0 mg/kg/injection, schedule: Q01DX009 (ip), vehicle: saline with Tween-80 94 % of control | endpoint: mean survival time, dose: 25.0 mg/kg/injection, schedule: Q01DX009 (ip), vehicle: saline 98 % of control | [5] 96 % of control | [6] 92 % of control

C/C(Cl)=C\CNc1ncnc2c1ncn2C1OC(CO)C(O)C1O (stereo not drawn)
inactive: [7] 103 % of control | [8] 101 % of control | [9] 91 % of control | [10] 100 % of control | [11] 101 % of control

O=S1(=O)C2CCC(C2)C1Cl (stereo not drawn)
inactive: [12] 88 % of control

Cc1cnccc1Br
inactive: endpoint: mean survival time, dose: 25.0 mg/kg/injection, schedule: Q01DX009 (ip), vehicle: water 96 % of control | endpoint: mean survival time, dose: 50.0 mg/kg/injection, schedule: Q01DX009 (ip), vehicle: water 96 % of control | endpoint: mean survival time, dose: 100.0 mg/kg/injection, schedule: Q01DX009 (ip), vehicle: water 86 % of control | endpoint: mean survival time, dose: 200.0 mg/kg/injection, schedule: Q01DX009 (ip), vehicle: water 90 % of control

CC(=O)NC1C=CC(=O)O1 (stereo not drawn)
inactive: endpoint: mean survival time, dose: 18.75 mg/kg/injection, schedule: Q01DX001 (ip), vehicle: saline 121 % of control | endpoint: mean survival time, dose: 37.5 mg/kg/injection, schedule: Q01DX001 (ip), vehicle: saline 119 % of control

NC(CCNCCc1ccccc1)CNCCc1ccccc1 (stereo not drawn)
inactive: endpoint: mean survival time, dose: 75.0 mg/kg/injection, schedule: Q01DX001 (ip), vehicle: saline 107 % of control | endpoint: mean survival time, dose: 150.0 mg/kg/injection, schedule: Q01DX001 (ip), vehicle: saline 92 % of control

CCC(=O)Nc1ccccc1OS(=O)(=O)N(C)C
inactive: [13] 97 % of control | [14] 98 % of control

O=C(N/N=C/c1ccc([N+](=O)[O-])cc1[N+](=O)[O-])c1ccncc1
inactive: [1] 95 % of control | [2] 91 % of control | [3] 91 % of control | [4] 89 % of control | endpoint: mean survival time, dose: 200.0 mg/kg/injection, schedule: Q01DX009 (ip), vehicle: other 93 % of control

CC(=O)Nc1cccc(Oc2ccc([N+](=O)[O-])cc2)c1
inactive: endpoint: mean survival time, dose: 100.0 mg/kg/injection, schedule: Q04DX002 (ip), vehicle: Klucel (hydroxypropylcellulose) (HPC) 98 % of control | endpoint: mean survival time, dose: 200.0 mg/kg/injection, schedule: Q04DX002 (ip), vehicle: Klucel (hydroxypropylcellulose) (HPC) 103 % of control | endpoint: mean survival time, dose: 400.0 mg/kg/injection, schedule: Q04DX002 (ip), vehicle: Klucel (hydroxypropylcellulose) (HPC) 98 % of control

O=[N+]([O-])c1ccc(N/N=C(\CO)c2ccccc2)c([N+](=O)[O-])c1
inactive: [15] 109 % of control | endpoint: mean survival time, dose: 200.0 mg/kg/injection, schedule: Q04DX003 (ip), vehicle: saline 97 % of control | endpoint: mean survival time, dose: 400.0 mg/kg/injection, schedule: Q04DX003 (ip), vehicle: saline 108 % of control

CN(C)Cc1cccc(CN(C)C)c1O
inactive: [16] 106 % of control

CCCCCCCCCCCCCCn1cnc2ncnc(Cl)c21
inactive: [7] 100 % of control | [8] 100 % of control | [9] 93 % of control | [10] 90 % of control | [11] 91 % of control

CC(=O)NCC1(c2ccccc2)CCN(CCCC(=O)c2ccc(F)cc2)CC1
inactive: endpoint: mean survival time, dose: 25.0 mg/kg/injection, schedule: Q04DX003 (ip), vehicle: Klucel (hydroxypropylcellulose) (HPC) 95 % of control | endpoint: mean survival time, dose: 50.0 mg/kg/injection, schedule: Q04DX003 (ip), vehicle: Klucel (hydroxypropylcellulose) (HPC) 100 % of control | [17] 95 % of control

NC(CC(=O)NC(=O)OCc1ccccc1)C(=O)O (stereo not drawn)
inactive: [6] 100 % of control | [12] 101 % of control | [18] 102 % of control | [13] 101 % of control | [19] 102 % of control | [14] 98 % of control

COc1ccc(NC(=O)Oc2cccc3ccccc23)c(Cl)c1
inactive: endpoint: mean survival time, dose: 50.0 mg/kg/injection, schedule: Q01DX009 (ip), vehicle: Klucel (hydroxypropylcellulose) (HPC) 100 % of control | [20] 100 % of control | [17] 106 % of control | [21] 100 % of control | endpoint: mean survival time, dose: 200.0 mg/kg/injection, schedule: Q04DX003 (ip), vehicle: Klucel (hydroxypropylcellulose) (HPC) 106 % of control | endpoint: mean survival time, dose: 400.0 mg/kg/injection, schedule: Q04DX003 (ip), vehicle: Klucel (hydroxypropylcellulose) (HPC) 102 % of control

CN(C)/N=C(\CBr)c1ccc(Br)cc1
inactive: [16] 103 % of control | endpoint: mean survival time, dose: 200.0 mg/kg/injection, schedule: Q01DX001 (ip), vehicle: saline 100 % of control

COC(=O)CCN(c1ccccc1)S(=O)(=O)c1ccc(C)cc1
inactive: [20] 98 % of control | [21] 100 % of control | endpoint: mean survival time, dose: 400.0 mg/kg/injection, schedule: Q01DX009 (ip), vehicle: Klucel (hydroxypropylcellulose) (HPC) 98 % of control

C=CCCCCCCCCC(=O)N(CC#N)CC(C)C
inactive: [6] 104 % of control | [12] 96 % of control | [18] 96 % of control | [13] 100 % of control | [14] 94 % of control

Cc1c(N)nc([C@H](CC(N)=O)NC[C@H](N)C(N)=O)nc1C(=O)N[C@H](C(=O)N[C@H](C)[C@@H](O)CC(=O)N[C@H](C(=O)NC(O[C@@H]1O[C@@H](C)[C@@H](N)[C@@H](O)[C@H]1O)C(O)c1nc(-c2nc(C(=O)NCCCCN)cs2)cs1)[C@@H](C)O)[C@@H](O[C@@H]1O[C@@H](CO)[C@@H](O)[C@H](O)[C@@H]1O[C@H]1O[C@H](CO)[C@@H](O)[C@H](OC(N)=O)[C@@H]1O)c1c[nH]cn1 (stereo partly drawn)
inactive: endpoint: median survival time, dose: 1.0 mg/kg/injection, schedule: Q01DX009 (ip), vehicle: saline 106 % of control | endpoint: median survival time, dose: 2.0 mg/kg/injection, schedule: Q01DX009 (ip), vehicle: saline 112 % of control | endpoint: median survival time, dose: 4.0 mg/kg/injection, schedule: Q01DX009 (ip), vehicle: saline 119 % of control | endpoint: median survival time, dose: 8.0 mg/kg/injection, schedule: Q01DX009 (ip), vehicle: saline 118 % of control | endpoint: median survival time, dose: 16.0 mg/kg/injection, schedule: Q01DX009 (ip), vehicle: saline 120 % of control | endpoint: median survival time, dose: 32.0 mg/kg/injection, schedule: Q01DX009 (ip), vehicle: saline 108 % of control

CC(CN)OCc1ccccc1 (stereo not drawn)
inactive: endpoint: mean survival time, dose: 25.0 mg/kg/injection, schedule: Q04DX003 (ip), vehicle: saline 98 % of control | endpoint: mean survival time, dose: 50.0 mg/kg/injection, schedule: Q04DX003 (ip), vehicle: saline 101 % of control | [15] 101 % of control

CN(Cc1ccc(Cl)cc1)N=Nc1ccc(C#N)cc1
inactive: [6] 98 % of control | [18] 107 % of control | [19] 93 % of control

Nc1cc(=O)c2[nH]cnc2[nH]1
inactive: endpoint: mean survival time, dose: 100.0 mg/kg/injection, schedule: Q01DX001 (ip), vehicle: carboxymethylcellulose (CMC) 95 % of control | endpoint: mean survival time, dose: 200.0 mg/kg/injection, schedule: Q01DX001 (ip), vehicle: carboxymethylcellulose (CMC) 104 % of control | endpoint: mean survival time, dose: 400.0 mg/kg/injection, schedule: Q01DX001 (ip), vehicle: carboxymethylcellulose (CMC) 101 % of control

CC(=O)NC(Cc1cc(I)c(OC(C)=O)c(I)c1)C(=O)O (stereo not drawn)
inactive: [5] 93 % of control | endpoint: mean survival time, dose: 50.0 mg/kg/injection, schedule: Q04DX003 (ip), vehicle: saline with Tween-80 101 % of control | [6] 93 % of control | [12] 95 % of control | [18] 93 % of control | [13] 97 % of control
